Activity calls are given as the source filed them.
Columns and labels:
[1] = biological target: T1, Neuropeptide Y receptor type 1 (Homo sapiens, UniProt P25929); assay type: functional;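 further: HEK293 cells with a CNG channel challenged with NPY then isoproterenol; potency as antagonist that reverses NPY suppression of cAMP signal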
T1 sequence (P25929 whole entry): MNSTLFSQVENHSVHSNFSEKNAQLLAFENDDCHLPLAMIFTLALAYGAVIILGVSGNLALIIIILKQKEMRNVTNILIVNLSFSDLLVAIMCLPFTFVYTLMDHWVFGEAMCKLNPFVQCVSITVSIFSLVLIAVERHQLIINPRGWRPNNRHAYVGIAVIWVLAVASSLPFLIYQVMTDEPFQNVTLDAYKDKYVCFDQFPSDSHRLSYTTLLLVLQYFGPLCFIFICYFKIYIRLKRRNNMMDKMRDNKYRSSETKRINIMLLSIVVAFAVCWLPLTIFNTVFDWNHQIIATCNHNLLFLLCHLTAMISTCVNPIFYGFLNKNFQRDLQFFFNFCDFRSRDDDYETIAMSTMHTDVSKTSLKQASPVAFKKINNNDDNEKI

[2] = biological target: T2, Neuropeptide Y receptor type 2 (Homo sapiens, UniProt P49146); assay type: functional, cell-based;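 further: HEK293 cells expressing the receptor and a CNG channel; stimulus was NPY near EC95 followed by isoproterenol to raise cAMP; antagonist potency measured as restoring cAMP signal that NPY suppresses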
T2 sequence (P49146 whole entry): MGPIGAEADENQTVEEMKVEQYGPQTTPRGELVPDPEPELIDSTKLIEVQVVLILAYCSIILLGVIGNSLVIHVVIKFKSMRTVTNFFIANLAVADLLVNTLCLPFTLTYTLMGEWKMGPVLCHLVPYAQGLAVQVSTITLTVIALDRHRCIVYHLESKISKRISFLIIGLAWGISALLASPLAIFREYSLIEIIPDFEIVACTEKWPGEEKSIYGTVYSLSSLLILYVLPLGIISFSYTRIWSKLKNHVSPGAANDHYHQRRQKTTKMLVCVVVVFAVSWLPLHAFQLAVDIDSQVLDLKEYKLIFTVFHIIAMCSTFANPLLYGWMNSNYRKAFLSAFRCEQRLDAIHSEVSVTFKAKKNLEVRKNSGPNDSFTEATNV

[3] = biological target: T3, Corticotropin-releasing factor receptor 2/Corticotropin-releasing factor-binding protein (Homo sapiens, UniProt P24387+Q13324); test: activators of CRF receptor 2 with binding protein – uHTS hits, confirmation (AID 602473); assay type: functional; conditions: read-out: EC50_Mean
T3 sequence (Q13324 whole entry): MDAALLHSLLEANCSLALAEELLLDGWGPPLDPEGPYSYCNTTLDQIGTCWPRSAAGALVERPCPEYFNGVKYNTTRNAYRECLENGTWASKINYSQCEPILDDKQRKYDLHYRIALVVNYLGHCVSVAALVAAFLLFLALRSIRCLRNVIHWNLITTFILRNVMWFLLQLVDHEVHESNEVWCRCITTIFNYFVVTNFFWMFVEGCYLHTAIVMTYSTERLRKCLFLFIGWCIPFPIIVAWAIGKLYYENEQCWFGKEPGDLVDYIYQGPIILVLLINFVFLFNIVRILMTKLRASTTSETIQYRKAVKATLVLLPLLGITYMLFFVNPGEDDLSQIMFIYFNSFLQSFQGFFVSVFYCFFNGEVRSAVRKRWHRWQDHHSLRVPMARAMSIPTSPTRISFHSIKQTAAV
T3 sequence (P24387 whole entry): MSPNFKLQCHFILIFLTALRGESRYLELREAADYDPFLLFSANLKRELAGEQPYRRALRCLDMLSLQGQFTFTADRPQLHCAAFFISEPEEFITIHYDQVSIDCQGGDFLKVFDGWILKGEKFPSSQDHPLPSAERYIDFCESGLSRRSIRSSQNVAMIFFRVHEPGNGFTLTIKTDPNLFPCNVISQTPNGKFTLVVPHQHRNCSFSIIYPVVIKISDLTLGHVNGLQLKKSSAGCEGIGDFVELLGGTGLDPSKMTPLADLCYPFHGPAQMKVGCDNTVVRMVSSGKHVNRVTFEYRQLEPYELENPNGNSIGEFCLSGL

Mucolipin-3 = Mucolipin-3 (Homo sapiens, UniProt Q8TDD5); test: Dose response cell-based high-throughput screening assay for agonists of the transient receptor potential channel ML3 (TRPML3). [Related pubchem assays: 1526, 1424, 1448 ]; assay type: functional
Ion channel NompC = Ion channel NompC (Danio rerio, UniProt Q7T1G6); test: Fluorescence counterscreen assay for TRPML3 agonists: dose response cell-based high-throughput screening assay to identify agonists of the transient receptor potential channel N1 (TRPN1). [Related pubchem assays: 1526, 1424, 1448 ]; assay type: functional
[4] = biological target: Induced myeloid leukemia cell differentiation protein Mcl-1 (Homo sapiens, UniProt Q07820); assay type: functional
[5] = antiviral protection against BTV-induced cell death – arbovirus, BSR cells, confirmation (AID 1250); assay type: functional;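 further: protection from viral cytopathic effect measured as cell viability by ATP luminescence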
[6] = biological target: T3, Corticotropin-releasing factor receptor 2/Corticotropin-releasing factor-binding protein; test: Dose Response confirmation of uHTS hits for small molecule antagonists of the CRF-binding protein and CRF-R2 receptor complex.; assay type: functional; conditions: read-out: IC50_Mean
[7] = biological target: T4, Sentrin-specific protease 1 (Homo sapiens, UniProt Q9P0U3); test: Dose response confirmation of small molecule inhibitors of the catalytic domain of the SUMO protease, SENP1 in a FRET assay.; assay type: functional; conditions: read-out: IC50_Mean
T4 sequence (Q9P0U3 whole entry): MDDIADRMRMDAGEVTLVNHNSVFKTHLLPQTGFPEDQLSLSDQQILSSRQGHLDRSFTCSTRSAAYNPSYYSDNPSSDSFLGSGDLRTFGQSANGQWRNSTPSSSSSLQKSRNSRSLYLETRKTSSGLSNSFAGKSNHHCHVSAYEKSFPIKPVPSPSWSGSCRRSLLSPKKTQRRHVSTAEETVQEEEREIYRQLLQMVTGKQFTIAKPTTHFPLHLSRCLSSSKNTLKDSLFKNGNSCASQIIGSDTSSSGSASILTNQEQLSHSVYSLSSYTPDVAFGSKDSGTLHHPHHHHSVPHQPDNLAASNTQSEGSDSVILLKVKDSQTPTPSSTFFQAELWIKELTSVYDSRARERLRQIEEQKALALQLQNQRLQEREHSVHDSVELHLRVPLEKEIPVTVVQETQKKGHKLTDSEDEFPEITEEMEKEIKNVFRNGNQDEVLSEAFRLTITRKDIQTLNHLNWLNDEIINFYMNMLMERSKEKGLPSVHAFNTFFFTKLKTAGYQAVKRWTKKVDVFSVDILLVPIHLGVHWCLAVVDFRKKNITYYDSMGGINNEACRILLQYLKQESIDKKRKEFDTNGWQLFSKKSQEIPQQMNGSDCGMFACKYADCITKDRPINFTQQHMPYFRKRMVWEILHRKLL

[8] = biological target: T4, Sentrin-specific protease 1; test: SENP1 catalytic domain blockers, concentration series – biochemical, kinetic FRET, dose response (AID 651697); assay type: functional; conditions: read-out: IC50_Mean

Mucolipin-3, sequence (Q8TDD5 whole entry): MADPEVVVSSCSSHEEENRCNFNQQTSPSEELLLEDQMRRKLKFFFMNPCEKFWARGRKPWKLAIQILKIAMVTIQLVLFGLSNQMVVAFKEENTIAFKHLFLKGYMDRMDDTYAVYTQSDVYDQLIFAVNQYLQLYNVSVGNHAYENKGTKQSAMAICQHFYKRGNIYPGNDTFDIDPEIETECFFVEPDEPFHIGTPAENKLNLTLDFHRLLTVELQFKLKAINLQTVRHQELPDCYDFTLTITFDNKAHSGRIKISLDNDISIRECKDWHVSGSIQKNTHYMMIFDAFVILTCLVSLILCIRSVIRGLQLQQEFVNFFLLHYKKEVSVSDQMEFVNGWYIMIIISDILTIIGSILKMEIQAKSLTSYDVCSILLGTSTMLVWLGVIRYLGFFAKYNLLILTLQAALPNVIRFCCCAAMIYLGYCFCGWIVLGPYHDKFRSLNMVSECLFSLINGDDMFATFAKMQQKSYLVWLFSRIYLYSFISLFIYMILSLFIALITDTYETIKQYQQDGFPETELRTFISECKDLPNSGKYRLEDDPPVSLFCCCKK
Ion channel NompC, sequence (Q7T1G6 whole entry): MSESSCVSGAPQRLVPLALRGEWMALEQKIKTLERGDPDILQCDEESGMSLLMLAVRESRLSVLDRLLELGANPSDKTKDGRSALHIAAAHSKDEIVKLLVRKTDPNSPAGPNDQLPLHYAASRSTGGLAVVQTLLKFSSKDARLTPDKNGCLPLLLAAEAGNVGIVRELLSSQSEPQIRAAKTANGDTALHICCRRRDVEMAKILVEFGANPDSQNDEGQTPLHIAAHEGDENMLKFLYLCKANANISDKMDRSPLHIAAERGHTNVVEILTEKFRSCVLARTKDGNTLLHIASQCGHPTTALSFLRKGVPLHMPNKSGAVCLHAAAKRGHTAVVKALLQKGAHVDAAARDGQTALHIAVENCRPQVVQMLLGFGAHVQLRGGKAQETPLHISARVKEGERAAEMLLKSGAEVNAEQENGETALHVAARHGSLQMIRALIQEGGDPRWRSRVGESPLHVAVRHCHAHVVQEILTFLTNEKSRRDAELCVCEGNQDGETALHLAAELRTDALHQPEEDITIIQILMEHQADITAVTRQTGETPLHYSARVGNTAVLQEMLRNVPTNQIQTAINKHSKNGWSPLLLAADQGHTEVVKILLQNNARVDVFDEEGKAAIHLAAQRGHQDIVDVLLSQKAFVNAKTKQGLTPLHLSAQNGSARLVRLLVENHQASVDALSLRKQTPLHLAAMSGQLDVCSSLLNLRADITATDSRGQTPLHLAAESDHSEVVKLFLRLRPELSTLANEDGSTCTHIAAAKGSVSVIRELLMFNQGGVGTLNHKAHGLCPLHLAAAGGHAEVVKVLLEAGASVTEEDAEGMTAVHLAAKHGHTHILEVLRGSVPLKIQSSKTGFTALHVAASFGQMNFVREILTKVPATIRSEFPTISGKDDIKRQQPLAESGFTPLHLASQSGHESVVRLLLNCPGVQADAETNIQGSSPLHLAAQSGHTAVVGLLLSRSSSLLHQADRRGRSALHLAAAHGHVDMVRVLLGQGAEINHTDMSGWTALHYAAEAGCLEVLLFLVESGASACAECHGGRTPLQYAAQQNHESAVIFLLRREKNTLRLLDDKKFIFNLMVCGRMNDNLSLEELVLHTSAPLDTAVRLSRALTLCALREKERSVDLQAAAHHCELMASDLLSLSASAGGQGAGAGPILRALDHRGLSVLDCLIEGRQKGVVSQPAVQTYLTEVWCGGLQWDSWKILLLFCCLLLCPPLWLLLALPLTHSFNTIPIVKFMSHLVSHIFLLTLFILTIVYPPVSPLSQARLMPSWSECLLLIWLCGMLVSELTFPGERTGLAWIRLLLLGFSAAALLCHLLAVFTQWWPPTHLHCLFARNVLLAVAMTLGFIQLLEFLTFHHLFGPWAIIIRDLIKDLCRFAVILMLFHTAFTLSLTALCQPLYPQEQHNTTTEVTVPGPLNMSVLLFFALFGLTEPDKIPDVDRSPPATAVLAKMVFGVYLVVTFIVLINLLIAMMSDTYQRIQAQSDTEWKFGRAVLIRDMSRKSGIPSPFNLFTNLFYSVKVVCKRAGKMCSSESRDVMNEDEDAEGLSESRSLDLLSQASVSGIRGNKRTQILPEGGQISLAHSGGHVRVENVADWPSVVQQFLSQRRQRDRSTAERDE
Induced myeloid leukemia cell differentiation protein Mcl-1, sequence (Q07820 whole entry): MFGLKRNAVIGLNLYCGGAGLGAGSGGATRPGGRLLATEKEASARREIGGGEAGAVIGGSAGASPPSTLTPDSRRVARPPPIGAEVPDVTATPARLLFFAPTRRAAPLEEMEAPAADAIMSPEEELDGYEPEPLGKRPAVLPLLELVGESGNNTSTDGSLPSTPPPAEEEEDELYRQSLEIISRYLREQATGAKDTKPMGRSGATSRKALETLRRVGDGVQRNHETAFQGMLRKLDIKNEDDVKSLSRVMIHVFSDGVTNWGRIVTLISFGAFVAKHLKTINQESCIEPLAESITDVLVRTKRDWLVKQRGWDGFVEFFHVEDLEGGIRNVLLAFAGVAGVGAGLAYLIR

| IC50 [1] | IC50 [2] | EC50 [3] | EC50 (Mucolipin-3) | EC50 (Ion channel NompC) | IC50 [4] | IC50 [6] | IC50 [7] | IC50 [8] | SMILES | IC50 [5] |
| --- | --- | --- | --- | --- | --- | --- | --- | --- | --- | --- |
| 9.35 µM (active) | 6.02 µM (active) |  |  |  |  |  |  |  | COc1ccc(-c2nnc3sc(C(C)N4C(=O)c5ccccc5C4=O)nn23)cc1 (stereo unspecified) |  |
|  |  | > 53 µM (inactive) | > 29.9 µM (not active) | > 29.9 µM (not active) |  |  |  |  | Cc1cc(C)cc(N2C(=O)CSC2c2cccs2)c1 (stereo unspecified) |  |
|  |  | > 53 µM (inactive) |  |  | 2.51 µM (active) | > 47.1 µM (inactive) | 25.4 µM (inactive) | 18.9 µM (active) | COc1ccccc1C1C2=C(N=c3s/c(=C/c4cccc(OCC(=O)O)c4)c(=O)n31)c1ccccc1CC2 (stereo unspecified) | 21.3 µM (active) |

Source: ChEMBL document CHEMBL1201862, “PubChem BioAssay data set” (2004)
